# Laboratory results taken from ChEMBL document CHEMBL4814018, “Rationally designed TNF-α inhibitors: Identification of promising cytotoxic agents” (Bioorg Med Chem Lett, 2021).
# Calls of active or inactive are those of the source. No cut-off for these calls is given here.
# Columns and labels:
# [1] = test system: SK-MEL-2; assay: Growth inhibition of human SK-MEL-2 cells incubated for 48 hrs by sulforhodamine B assay; assay type: functional
# [2] = test system: T47D; assay: Growth inhibition of human T47D cells at 10 uM incubated for 48 hrs by sulforhodamine B assay relative to control; assay type: functional; conditions: read-out: GI
# [3] = test system: Panel NCI-60 (60 carcinoma cell lines); assay: Growth inhibition of human Panel NCI-60 (60 carcinoma cell lines) incubated for 48 hrs by sulforhodamine B assay; assay type: functional
# [4] = test system: UACC-257; assay: Growth inhibition of human UACC-257 cells incubated for 48 hrs by sulforhodamine B assay; assay type: functional
# [5] = test system: UO-31; assay: Growth inhibition of human UO-31 cells at 10 uM incubated for 48 hrs by sulforhodamine B assay relative to control; assay type: functional; conditions: read-out: GI
# [6] = Therapeutic index, ratio of LC50 for human Panel NCI-60 (60 carcinoma cell lines) to GI50 for human Panel NCI-60 (60 carcinoma cell lines); assay type: functional
# [7] = test system: A498; assay: Growth inhibition of human A498 cells at 10 uM incubated for 48 hrs by sulforhodamine B assay relative to control; assay type: functional; conditions: read-out: GI
# [8] = test system: CAKI-1; assay: Growth inhibition of human CAKI-1 cells at 10 uM incubated for 48 hrs by sulforhodamine B assay relative to control; assay type: functional; conditions: read-out: GI
# [9] = test system: IGROV-1; assay: Growth inhibition of human IGROV-1 cells at 10 uM incubated for 48 hrs by sulforhodamine B assay relative to control; assay type: functional; conditions: read-out: GI
# [10] = test system: SK-OV-3; assay: Growth inhibition of human SK-OV-3 cells incubated for 48 hrs by sulforhodamine B assay; assay type: functional
# [11] = test system: UACC-62; assay: Growth inhibition of human UACC-62 cells at 10 uM incubated for 48 hrs by sulforhodamine B assay relative to control; assay type: functional; conditions: read-out: GI
# [12] = test system: BV-2; assay: Antiinflammatory activity against mouse BV2 cells assessed as reduction in LPS-induced IL6 production at 1 uM by enzyme immunoassay; assay type: functional, cell-based
# [13] = test system: HOP-62; assay: Growth inhibition of human HOP-62 cells at 10 uM incubated for 48 hrs by sulforhodamine B assay relative to control; assay type: functional; conditions: read-out: GI
# [14] = test system: SR; assay: Growth inhibition of human SR cells at 10 uM incubated for 48 hrs by sulforhodamine B assay relative to control; assay type: functional; conditions: read-out: GI
# [15] = test system: OVCAR-4; assay: Growth inhibition of human OVCAR-4 cells incubated for 48 hrs by sulforhodamine B assay; assay type: functional
# [16] = test system: OVCAR-5; assay: Growth inhibition of human OVCAR-5 cells at 10 uM incubated for 48 hrs by sulforhodamine B assay relative to control; assay type: functional; conditions: read-out: GI
# [17] = test system: IGROV-1; assay: Growth inhibition of human IGROV-1 cells incubated for 48 hrs by sulforhodamine B assay; assay type: functional
# [18] = test system: U-251; assay: Growth inhibition of human U-251 cells incubated for 48 hrs by sulforhodamine B assay; assay type: functional
# [19] = test system: HCT-116; assay: Growth inhibition of human HCT-116 cells incubated for 48 hrs by sulforhodamine B assay; assay type: functional
# [20] = test system: NCI-H226; assay: Growth inhibition of human NCI-H226 cells at 10 uM incubated for 48 hrs by sulforhodamine B assay relative to control; assay type: functional; conditions: read-out: GI
# [21] = test system: SR; assay: Growth inhibition of human SR cells incubated for 48 hrs by sulforhodamine B assay; assay type: functional
# [22] = test system: U-251; assay: Growth inhibition of human U-251 cells at 10 uM incubated for 48 hrs by sulforhodamine B assay relative to control; assay type: functional; conditions: read-out: GI
# [23] = test system: CAKI-1; assay: Growth inhibition of human CAKI-1 cells incubated for 48 hrs by sulforhodamine B assay; assay type: functional
# [24] = test system: MDA-MB-231; assay: Growth inhibition of human MDA-MB-231 cells at 10 uM incubated for 48 hrs by sulforhodamine B assay relative to control; assay type: functional; conditions: read-out: GI
# [25] = test system: BV-2; assay: Cytotoxicity against mouse BV2 cells incubated for 48 hrs by MTT assay; assay type: cell-based; conditions: BV-2, 48 h
# [26] = test system: MDA-MB-468; assay: Growth inhibition of human MDA-MB-468 cells incubated for 48 hrs by sulforhodamine B assay; assay type: functional
# [27] = test system: MDA-MB-468; assay: Growth inhibition of human MDA-MB-468 cells at 10 uM incubated for 48 hrs by sulforhodamine B assay relative to control; assay type: functional; conditions: read-out: GI
# [28] = test system: SW-620; assay: Growth inhibition of human SW-620 cells incubated for 48 hrs by sulforhodamine B assay; assay type: functional
# [29] = test system: K562; assay: Growth inhibition of human K562 cells at 10 uM incubated for 48 hrs by sulforhodamine B assay relative to control; assay type: functional; conditions: read-out: GI
# [30] = test system: SK-MEL-2; assay: Growth inhibition of human SK-MEL-2 cells at 10 uM incubated for 48 hrs by sulforhodamine B assay relative to control; assay type: functional; conditions: read-out: GI
# [31] = test system: NCI-H460; assay: Growth inhibition of human NCI-H460 cells at 10 uM incubated for 48 hrs by sulforhodamine B assay relative to control; assay type: functional; conditions: read-out: GI
# [32] = test system: OVCAR-5; assay: Growth inhibition of human OVCAR-5 cells incubated for 48 hrs by sulforhodamine B assay; assay type: functional
# [33] = test system: UO-31; assay: Growth inhibition of human UO-31 cells incubated for 48 hrs by sulforhodamine B assay; assay type: functional
# [34] = test system: HOP-62; assay: Growth inhibition of human HOP-62 cells incubated for 48 hrs by sulforhodamine B assay; assay type: functional
# [35] = test system: HCT-116; assay: Growth inhibition of human HCT-116 cells at 10 uM incubated for 48 hrs by sulforhodamine B assay relative to control; assay type: functional; conditions: read-out: GI
# [36] = test system: TK-10; assay: Growth inhibition of human TK-10 cells at 10 uM incubated for 48 hrs by sulforhodamine B assay relative to control; assay type: functional; conditions: read-out: GI
# [37] = test system: BV-2; assay: Antiinflammatory activity against mouse BV2 cells assessed as decrease in LPS-induced NO production at 1 to 5 uM pretreated with compound followed by LPS stimulation incubated for 4 to 48 hrs by enzyme immunoassay; assay type: functional, cell-based; conditions: dose 1-5 µM, time 4-48 hrs
# [38] = test system: SF-295; assay: Growth inhibition of human SF-295 cells incubated for 48 hrs by sulforhodamine B assay; assay type: functional
# [39] = test system: SK-OV-3; assay: Growth inhibition of human SK-OV-3 cells at 10 uM incubated for 48 hrs by sulforhodamine B assay relative to control; assay type: functional; conditions: read-out: GI
# [40] = test system: NCI-H460; assay: Growth inhibition of human NCI-H460 cells incubated for 48 hrs by sulforhodamine B assay; assay type: functional
# [41] = test system: UACC-62; assay: Growth inhibition of human UACC-62 cells incubated for 48 hrs by sulforhodamine B assay; assay type: functional
# [42] = test system: NCI-H226; assay: Growth inhibition of human NCI-H226 cells incubated for 48 hrs by sulforhodamine B assay; assay type: functional
# [43] = test system: HOP-92; assay: Growth inhibition of human HOP-92 cells at 10 uM incubated for 48 hrs by sulforhodamine B assay relative to control; assay type: functional; conditions: read-out: GI
# [44] = test system: TK-10; assay: Growth inhibition of human TK-10 cells incubated for 48 hrs by sulforhodamine B assay; assay type: functional
# [45] = test system: RPMI-8226; assay: Growth inhibition of human RPMI8226 cells at 10 uM incubated for 48 hrs by sulforhodamine B assay relative to control; assay type: functional; conditions: read-out: GI
# [46] = test system: T47D; assay: Growth inhibition of human T47D cells incubated for 48 hrs by sulforhodamine B assay; assay type: functional
# [47] = test system: RPMI-8226; assay: Growth inhibition of human RPMI-8226 cells incubated for 48 hrs by sulforhodamine B assay; assay type: functional; conditions: dose 10 µM
# [48] = test system: OVCAR-3; assay: Growth inhibition of human OVCAR-3 cells incubated for 48 hrs by sulforhodamine B assay; assay type: functional
# [49] = test system: OVCAR-4; assay: Growth inhibition of human OVCAR-4 cells at 10 uM incubated for 48 hrs by sulforhodamine B assay relative to control; assay type: functional; conditions: read-out: GI
# [50] = test system: MDA-MB-231; assay: Growth inhibition of human MDA-MB-231 cells incubated for 48 hrs by sulforhodamine B assay; assay type: functional
# [51] = test system: BV-2; assay: Antiinflammatory activity against mouse BV2 cells assessed as inhibition of LPS-induced TNFalpha production at 1 uM by enzyme immunoassay; assay type: functional; parameters: scale not given: the % may be the effect or the level left
# [52] = test system: K562; assay: Growth inhibition of human K562 cells incubated for 48 hrs by sulforhodamine B assay; assay type: functional
# [53] = test system: A498; assay: Growth inhibition of human A498 cells incubated for 48 hrs by sulforhodamine B assay; assay type: functional
# [54] = test system: OVCAR-3; assay: Growth inhibition of human OVCAR-3 cells at 10 uM incubated for 48 hrs by sulforhodamine B assay relative to control; assay type: functional; conditions: read-out: GI
# [55] = test system: HOP-92; assay: Growth inhibition of human HOP-92 cells incubated for 48 hrs by sulforhodamine B assay; assay type: functional
# [56] = test system: MCF7; assay: Growth inhibition of human MCF7 cells incubated for 48 hrs by sulforhodamine B assay; assay type: functional
# [57] = test system: SF-295; assay: Growth inhibition of human SF-295 cells at 10 uM incubated for 48 hrs by sulforhodamine B assay relative to control; assay type: functional; conditions: read-out: GI
# [58] = test system: MCF7; assay: Growth inhibition of human MCF7 cells at 10 uM incubated for 48 hrs by sulforhodamine B assay relative to control; assay type: functional; conditions: read-out: GI
# [59] = test system: UACC-257; assay: Growth inhibition of human UACC-257 cells at 10 uM incubated for 48 hrs by sulforhodamine B assay relative to control; assay type: functional; conditions: read-out: GI
# [60] = test system: SW-620; assay: Growth inhibition of human SW-620 cells at 10 uM incubated for 48 hrs by sulforhodamine B assay relative to control; assay type: functional; conditions: read-out: GI
# [61] = read-out: LC50 (the source's name)
compound,measurement,setting,value
O=C1COCCN1c1ccc(NCc2cn(Cc3ccc(Cl)cc3)c3ccccc23)cc1,GI50,[1],2180 nM
same,inhibition of growth at 10 µM,[2],95%
same,GI50,[3],2090 nM
same,TGI,[3],25100 nM
same,CC50,[3]; [61],70800 nM
same,GI50,[4],270 nM
same,inhibition of growth at 10 µM,[5],92%
same,TI,[6],34
same,inhibition of growth at 10 µM,[7],100%
same,inhibition of growth at 10 µM,[8],100%
same,inhibition of growth at 10 µM,[9],100%
same,GI50,[10],2290 nM
same,inhibition of growth at 10 µM,[11],100%
same,Activity,[12],Active
same,inhibition of growth at 10 µM,[13],83%
same,inhibition of growth at 10 µM,[14],87%
same,GI50,[15],480 nM
same,inhibition of growth at 10 µM,[16],100%
same,GI50,[17],250 nM
same,GI50,[18],1200 nM
same,GI50,[19],240 nM
same,inhibition of growth at 10 µM,[20],93%
same,GI50,[21],3000 nM
same,inhibition of growth at 10 µM,[22],89%
same,GI50,[23],50 nM
same,CC50,[23]; [61],> 100000 nM
same,inhibition of growth at 10 µM,[24],77%
same,IC50,[25],> 10000 nM
same,GI50,[26],100 nM
same,CC50,[26]; [61],800 nM
same,inhibition of growth at 10 µM,[27],100%
same,GI50,[28],2200 nM
same,inhibition of growth at 10 µM,[29],94%
same,inhibition of growth at 10 µM,[30],89%
same,inhibition of growth at 10 µM,[31],93%
same,GI50,[32],180 nM
same,CC50,[32]; [61],9600 nM
same,GI50,[33],2080 nM
same,GI50,[34],1000 nM
same,inhibition of growth at 10 µM,[35],96%
same,inhibition of growth at 10 µM,[36],100%
same,Activity,[37],Active
same,GI50,[38],1800 nM
same,inhibition of growth at 10 µM,[39],91%
same,GI50,[40],260 nM
same,GI50,[41],390 nM
same,GI50,[42],150 nM
same,CC50,[42]; [61],3600 nM
same,inhibition of growth at 10 µM,[43],90%
same,GI50,[44],140 nM
same,CC50,[44]; [61],> 100000 nM
same,inhibition of growth at 10 µM,[45],95%
same,GI50,[46],260 nM
same,GI50,[47],2100 nM
same,GI50,[48],1200 nM
same,inhibition of growth at 10 µM,[49],94%
same,GI50,[50],4500 nM
same,Activity,[51],75%
same,GI50,[52],1800 nM
same,GI50,[53],30 nM
same,CC50,[53]; [61],400 nM
same,inhibition of growth at 10 µM,[54],96%
same,GI50,[55],1600 nM
same,GI50,[56],290 nM
same,inhibition of growth at 10 µM,[57],85%
same,inhibition of growth at 10 µM,[58],96%
same,inhibition of growth at 10 µM,[59],100%
same,inhibition of growth at 10 µM,[60],73%
